The text below walks through data of ChEMBL document CHEMBL3808292, “Synthesis and biological evaluation of 5,7-dihydroxyflavanone derivatives as antimicrobial agents” (Bioorg Med Chem Lett, 2016).

Values after ≈ are worked out from the molar mass of the structure shown.

In data set [1] the test system is HepG2. The data set is described as follows: Cytotoxicity against human HepG2 cells assessed as cell viability after 24 hrs by MTS assay. In kind it is cell-based. Particulars: for Activity: human, hepg2, 24 h.
The next data set deals with Pseudomonas aeruginosa. As to the kind of experiment: Antimicrobial activity against Pseudomonas aeruginosa PAO1 after 24 hrs by spectrophotometric method. The data set is classed as functional. To be noted: PAO1, 24 h.
In a further data set the test system is Vibrio cholerae. As to the kind of experiment: Antimicrobial activity against Vibrio cholerae 0395N1 after 24 hrs by spectrophotometric method. The data set is classed as functional. To be noted: 0395N1, 24 h.
The next data set relates to Staphylococcus aureus. The data set is described as follows: Antimicrobial activity against Staphylococcus aureus ATCC 33807 after 24 hrs by spectrophotometric method. In kind it is functional. Particulars: ATCC 33807, 24 h.
For the next data set, the system named is Bacillus anthracis. As to the kind of experiment: Antimicrobial activity against Bacillus anthracis delta sterne after 24 hrs by spectrophotometric method. In kind it is functional.
Another data set has as its system Bacillus subtilis. The data set is described as follows: Antimicrobial activity against Bacillus subtilis 1012 after 24 hrs by spectrophotometric method. The data set is classed as functional. To be noted: Bacillus subtilis, 1012, 24 h.
A further data set deals with Escherichia coli. The data set is described as follows: Antimicrobial activity against Escherichia coli BW25113 after 24 hrs by spectrophotometric method. The data set is classed as functional. To be noted: BW25113, 24 h.
Another data set concerns Saccharomyces cerevisiae. The data set is described as follows: Antifungal activity against Saccharomyces cerevisiae INVSc1 after 24 hrs by spectrophotometric method. In kind it is functional. To be noted: INVSc1, 24 h.
A further data set relates to Bacillus cereus. As to the kind of experiment: Antimicrobial activity against Bacillus cereus 10987 after 24 hrs by spectrophotometric method. To be noted: Bacillus cereus, 10987, 24 h. The data set is classed as functional.
The nature of data set [2]: Aqueous solubility of compound. In kind it is physicochemical. Particulars: buffer.
Data set [3] is described as follows: Aqueous solubility of compound at 50 uM. In kind it is physicochemical. To be noted: buffer.
In data set [4] the test system is HepG2. The data set is described as follows: (§1) Cytotoxicity against human HepG2 cells assessed as cell viability at 50 uM after 24 hrs by MTS assay. The data set is classed as cell-based. Particulars: hepg2, 24 h, 50 µM.
Data set [5] in a line: Cytotoxicity against human HepG2 cells assessed as cell viability at 50 uM after 6 hrs by MTS assay. The data set is classed as cell-based. Particulars: read-out: Activity.
Data set [6] in a line: as §1. The data set is classed as cell-based. To be noted: HepG2 cells, read-out: Activity.

The MIC is the least concentration at which growth counts as inhibited. A low value points to inhibition by little substance. The term solubility denotes how much of the substance goes into solution per volume. High values mean a readily soluble substance, low ones a poorly soluble substance. As to `O=C1CC(c2ccc(Cl)c(F)c2)Oc2cc(O)cc(O)c21` (centres undefined), the Activity result with HepG2 [1] is “Dose-dependent effect”; with HepG2 [4], “Non-toxic”. The minimum inhibitory concentration (MIC) is 250 µM (≈ 77.2 µg/mL) in the data set with Pseudomonas aeruginosa; 125 µM (≈ 38.6 µg/mL) with Vibrio cholerae; 125 µM (≈ 38.6 µg/mL) against Staphylococcus aureus; 62.5 µM (≈ 19.3 µg/mL) against Bacillus anthracis; 125 µM (≈ 38.6 µg/mL) in the data set on Bacillus subtilis; 250 µM (≈ 77.2 µg/mL) in the data set on Escherichia coli. Also, the MIC with Saccharomyces cerevisiae was found to be 250 µM (≈ 77.2 µg/mL); with Bacillus cereus, 93.8 µM (≈ 28.9 µg/mL). For the same compound, the solubility in data set [2] is 500 µM (≈ 154 µg/mL); in data set [3] it was “soluble”.

Turning to `O=C1CC(c2ccc(F)cc2)Oc2cc(O)cc(O)c21` (centres undefined), the figures for the Activity entry in the data set with HepG2 [1] and with HepG2 [4] were “Dose-dependent effect” and “Non-toxic”, respectively. The MIC in the data set with Pseudomonas aeruginosa came out at 500 µM (≈ 137 µg/mL); against Vibrio cholerae, 125 µM (≈ 34.3 µg/mL); with Staphylococcus aureus it was 125 µM (≈ 34.3 µg/mL); in the data set with Bacillus anthracis, 125 µM (≈ 34.3 µg/mL); in the data set with Bacillus subtilis, 125 µM (≈ 34.3 µg/mL); in the data set with Escherichia coli, 500 µM (≈ 137 µg/mL). In addition, the MIC came out at 250 µM (≈ 68.6 µg/mL) against Saccharomyces cerevisiae and 125 µM (≈ 34.3 µg/mL) with Bacillus cereus. Also, the solubility in [2] is 1000 µM (≈ 274 µg/mL); in [3], “soluble”.

`O=C1CC(c2ccc(F)c(F)c2)Oc2cc(O)cc(O)c21` (centres undefined): the Activity entry with HepG2 [1] was “Dose-dependent effect”; in the data set with HepG2 [4], “Non-toxic”. For the same compound, the MIC against Pseudomonas aeruginosa is 1000 µM (≈ 292 µg/mL); in the data set on Vibrio cholerae, 125 µM (≈ 36.5 µg/mL); against Staphylococcus aureus, 125 µM (≈ 36.5 µg/mL); against Bacillus anthracis, 62.5 µM (≈ 18.3 µg/mL); against Bacillus subtilis, 125 µM (≈ 36.5 µg/mL); against Escherichia coli, 1000 µM (≈ 292 µg/mL). Also, the MIC in the data set on Saccharomyces cerevisiae came out at 1000 µM (≈ 292 µg/mL); with Bacillus cereus, 125 µM (≈ 36.5 µg/mL). For the same compound, the results for the solubility in [2] and in data set [3] were 1000 µM (≈ 292 µg/mL) and “soluble”, respectively.

In the case of `O=C1CC(c2ccc(Cl)c(Cl)c2)Oc2cc(O)cc(O)c21` (centres undefined), the Activity entry in the data set on HepG2 [1] is “Dose-dependent effect”. The viability at 6 h, 50 µM in data set [5] came to 17%. Besides, the MIC stood at 125 µM (≈ 40.6 µg/mL) with Pseudomonas aeruginosa; 125 µM (≈ 40.6 µg/mL) against Vibrio cholerae; 62.5 µM (≈ 20.3 µg/mL) against Staphylococcus aureus; 31.2 µM (≈ 10.2 µg/mL) against Bacillus anthracis; 62.5 µM (≈ 20.3 µg/mL) against Bacillus subtilis; 125 µM (≈ 40.6 µg/mL) in the data set on Escherichia coli. Also, the MIC in the data set on Saccharomyces cerevisiae and in the data set with Bacillus cereus was 31.2 µM (≈ 10.2 µg/mL) in each case. Besides, the values for the solubility in data set [2] and in data set [3] were 63 µM (≈ 20.5 µg/mL) and “soluble”, respectively. Moreover, the viability at 24 h, 50 µM in [6] turned out to be 57%.

As a reminder, the IC50 is the concentration that inhibits the measured activity by half. Take `O=C1CC(c2cc(F)c(F)c(F)c2)Oc2cc(O)cc(O)c21` (centres undefined): the 50% inhibitory concentration (IC50) in the data set with HepG2 [1] (Homo sapiens, HepG2, 24 h) was 95 µM. For the same compound, the values for the Activity result in the data set with HepG2 [1] and in the data set with HepG2 [4] were “Dose-dependent effect” and “Non-toxic”, respectively. For the same compound, the MIC in the data set with Pseudomonas aeruginosa, with Vibrio cholerae, against Staphylococcus aureus, against Bacillus anthracis, with Bacillus subtilis and in the data set on Escherichia coli was 1000 µM (≈ 310 µg/mL) each time. In addition, the figures for the minimum inhibitory concentration (MIC) against Saccharomyces cerevisiae and with Bacillus cereus were 125 µM (≈ 38.8 µg/mL) and 1000 µM (≈ 310 µg/mL), respectively. Moreover, the solubility is 500 µM (≈ 155 µg/mL) in data set [2] and “soluble” in [3].

On to `O=C1CC(c2cc(O)c(O)c(O)c2)Oc2cc(O)cc(O)c21` (centres undefined), for which the values for the Activity entry in the data set on HepG2 [1] and in the data set with HepG2 [4] were “Dose-dependent effect” and “Non-toxic”, respectively. Also, the MIC with Pseudomonas aeruginosa, in the data set with Vibrio cholerae, in the data set with Staphylococcus aureus, against Bacillus anthracis, in the data set with Bacillus subtilis and in the data set on Escherichia coli was 1000 µM (≈ 304 µg/mL) throughout. The MIC against Saccharomyces cerevisiae and in the data set on Bacillus cereus was 1000 µM (≈ 304 µg/mL) each time. Moreover, the solubility in data set [2] is 63 µM (≈ 19.2 µg/mL); in [3], “soluble”.
